# Source: US10119168B2, “Methods for the treatment of kidney fibrosis” (priority 2014, dated 2018)
# Columns and labels:
# mouse liver = experiment: ANIT diet liver fibrosis model (Picrosirius red staining, qRT-PCR); conditions: ANIT diet 4 weeks vs control diet
# From the text: Fibrosis is a universal pathological finding for chronic diseases in any organ(14) and it would be useful to identify biomarkers of fibrosis that are specific for an organ or be able to indicate their origin.
# Animals were housed in an Association for Assessment and Accreditation of Laboratory Animal Care International-accredited facility at Michigan State University and all procedures were approved by the Michigan State University Institutional Animal Care and Use Committee.
# (§1) Formalin fixed, paraffin embedded kidney sections were Masson Trichrome's stained and evaluated by a renal pathologist under a light microscope in blinded fashion relative to sample group. Percent area of fibrosis relative to the total section area was evaluated. Sirius red staining of the […] sections was performed at the Michigan State University Investigative Histopathology Laboratory.
# (§2) Total RNA was extracted from frozen kidney tissue using TRIzol reagent (Invitrogen). Following RNA concentration measurement by NanoDrop spectrophotometer (Thermo Fischer Scientific), 1 μg RNA was used for cDNA preparation using QuantiTect Reverse Transcription Kit from Qiagen (Valencia, Calif.). qRT-PCR using QuantiFast SYBR Green PCR Kit (Qiagen) was performed in 384-well plates on an Applied Biosystems 7900HT Fast Real-Time PCR System instrument with the following temperature profile: 3 min enzyme activation at 95° C. followed by 40 cycles of 95° C. for 10 s, and 55° C. for 30 s. Primer pairs used are listed in Supplementary Table 1. Gapdh was used as reference gene for normalization. The SDS 2.4 software (Applied Biosystems) was used to compute the threshold cycle (Cq) and the relative expression for an mRNA was assessed using the 2^−ΔCq method.
# [1] = test system: kidney fibrosis after FA injection in mice; experiment: Enalapril treatment in folic acid (FA) nephropathy model of kidney fibrosis (histology, qRT-PCR); format: in vivo, mouse; conditions: day 14
# Method: Conversely, to test if the markers reflect recovery from fibrosis interventions on the renin-angiotensin system were used.
# Mice were sacrificed at 1, 2, 3, 7 and 14 days following administration. […] All mice were sacrificed at 14 days.
# as §1, §2
# [2] = enalapril 200 mg/l in drinking water after FA injection, kidney qRT-PCR vs control
Compound,Mgp gene level (mouse liver),Scn7a gene level (mouse liver),Sytl2 gene level (mouse liver),collagen 1a1 gene expression (mouse liver),"kidney fibrosis development (histological assessment) ([1]; enalapril 200 mg/l continuously in drinking water after FA injection, vs plain water control)","reduction of collagen 1a1 mRNA expression ([1]; enalapril 200 mg/l in drinking water after FA injection, kidney qRT-PCR)","Cdh11 gene expression level [1, 2]","Gabrp gene expression level [1, 2]","Mrc1 gene expression level [1, 2]","Scn7a gene expression level [1, 2]","Smoc2 gene expression level [1, 2]"
"S=C=Nc1cccc2ccccc12 [ANIT, α-naphthylisothiocyanate]",significantly higher (p<0.05) gene levels,significantly higher (p<0.05) gene levels,significantly higher (p<0.05) gene levels,significantly increased collagen 1a1 gene expression,,,,,,,
CCOC(=O)[C@H](CCc1ccccc1)N[C@@H](C)C(=O)N1CCC[C@H]1C(=O)O [enalapril],,,,,reduced kidney fibrosis development,~3 fold,significant (p<0.05) decreases,significant (p<0.05) decreases,significant (p<0.05) decreases,significant (p<0.05) decreases,significant (p<0.05) decreases
